Marks after values point to notes of the source that are not given here.
Assay: Biodistribution of radioactivity in rat tissues after intravenous injection
Format: in vivo
Settings: for Radioactivity in Entorhinal cortex / Radioactivity in Fat / Radioactivity in Heart (ventricle) / Radioactivity in Hippocampus / Radioactivity in Hypothalamus / Radioactivity in Inferior collicull / Radioactivity in Kidney / Radioactivity in Large intestine / Radioactivity in Lge. intestine content / Radioactivity in Liver / Radioactivity in Lung / Radioactivity in Medulla with Pons / Radioactivity in Olfactory bulbs / Radioactivity in Olfactory tubercles / Radioactivity in Prefrontal cortex / Radioactivity in Skeletal muscle / Radioactivity in Skin / Radioactivity in Sm. intestine content / Radioactivity in Small intestine / Radioactivity in Somatosensory cortex / Radioactivity in Spleen / Radioactivity in Stomach / Radioactivity in Striata / Radioactivity in Superior collicull / Radioactivity in Testis / Radioactivity in Thalamus / Radioactivity in Urine / Radioactivity in Visual cortex / Radioactivity in Plasma / Radioactivity in Whole blood / Radioactivity in Cerebellum: i.v.; for Radioactivity in Plasma / Radioactivity in Whole blood: composite curve of 9 rats
Experimental: Sixteen adult male Sprague-Dawley rats (body weight 250-320 g: mean±SD=288±25 g) were used in 5 separate experiments. Each rat was injected with ˜13 MBq Compound 1, at a specific activity of […], via a previously catheterised tail vein. The associated stable compound was 0.5±0.2 nmol/kg. Discrete samples of arterial blood were collected from 9 of the rats via a previously catheterised tail artery.
Tissues were sampled post-mortem using an established protocol, as described in Hirani et al, Synapse 42:164-176 (2001). The radioactivity concentration data obtained at 12 times up to 90 min after radioligand injection were normalised for both amount injected and body weight, giving:—‘uptake units’=(cpm/g tissue)/(injected cpm/g body weight).

[1] = period 5 to 90 min after intravenous injection

## CSc1cccc(N([11CH3])C(=N)Nc2cc(SC)ccc2Cl)c1 [Compound 1, (N-(2-chloro-5-(methylthio)phenyl)-N′-(3-methylthio)phenyl)-N′-[N-methyl-^11C]-methylguanidine]
30 min
  Radioactivity in Entorhinal cortex: 1.31 Uptake Units
  Radioactivity in Fat: 0.71 Uptake Units
  Radioactivity in Heart (ventricle): 0.99 Uptake Units
  Radioactivity in Hippocampus: 1.32 Uptake Units
  Radioactivity in Hypothalamus: 1.22 Uptake Units
  Radioactivity in Inferior collicull: 1.16 Uptake Units
  Radioactivity in Kidney: 2.85 Uptake Units
  Radioactivity in Large intestine: 1.11 Uptake Units
  Radioactivity in Lge. intestine content: 0.36 Uptake Units
  Radioactivity in Liver: 7.84 Uptake Units
  Radioactivity in Lung: 7.48 Uptake Units
  Radioactivity in Medulla with Pons: 1.26 Uptake Units
  Radioactivity in Olfactory bulbs: 1.10 Uptake Units
  Radioactivity in Olfactory tubercles: 1.24 Uptake Units
  Radioactivity in Prefrontal cortex: 1.51 Uptake Units
  Radioactivity in Skeletal muscle: 0.68 Uptake Units
  Radioactivity in Skin: 0.75 Uptake Units
  Radioactivity in Sm. intestine content: 7.14 Uptake Units
  Radioactivity in Small intestine: 2.30 Uptake Units
  Radioactivity in Somatosensory cortex: 1.37 Uptake Units
  Radioactivity in Spleen: 4.75 Uptake Units
  Radioactivity in Stomach: 1.07 Uptake Units
  Radioactivity in Striata: 1.32 Uptake Units
  Radioactivity in Superior collicull: 1.19 Uptake Units
  Radioactivity in Testis: 0.76 Uptake Units
  Radioactivity in Thalamus: 1.43 Uptake Units
  Radioactivity in Urine: 37.5 Uptake Units
  Radioactivity in Visual cortex: 1.55 Uptake Units
  Radioactivity in Plasma: 0.18 Uptake Units
  Radioactivity in Whole blood: 0.19 Uptake Units
40 min
  Radioactivity in Cerebellum: 0.62 Uptake Units
  Radioactivity in Entorhinal cortex: 0.85 Uptake Units
  Radioactivity in Fat: 0.45 Uptake Units
  Radioactivity in Heart (ventricle): 0.63 Uptake Units
  Radioactivity in Hippocampus: 0.86 Uptake Units
  Radioactivity in Hypothalamus: 0.76 Uptake Units
  Radioactivity in Inferior collicull: 0.64 Uptake Units
  Radioactivity in Kidney: 1.79 Uptake Units
  Radioactivity in Large intestine: 0.66 Uptake Units
  Radioactivity in Lge. intestine content: 0.23 Uptake Units
  Radioactivity in Liver: 5.76 Uptake Units
  Radioactivity in Lung: 3.99 Uptake Units
  Radioactivity in Medulla with Pons: 0.80 Uptake Units
  Radioactivity in Olfactory bulbs: 0.64 Uptake Units
  Radioactivity in Olfactory tubercles: 0.72 Uptake Units
  Radioactivity in Prefrontal cortex: 0.93 Uptake Units
  Radioactivity in Skeletal muscle: 0.61 Uptake Units
  Radioactivity in Skin: 0.39 Uptake Units
  Radioactivity in Sm. intestine content: 3.68 Uptake Units
  Radioactivity in Small intestine: 1.09 Uptake Units
  Radioactivity in Somatosensory cortex: 0.88 Uptake Units
  Radioactivity in Spleen: 2.83 Uptake Units
  Radioactivity in Stomach: 0.45 Uptake Units
  Radioactivity in Striata: 0.84 Uptake Units
  Radioactivity in Superior collicull: 0.65 Uptake Units
  Radioactivity in Testis: 0.74 Uptake Units
  Radioactivity in Thalamus: 0.92 Uptake Units
  Radioactivity in Urine: 27.5 Uptake Units
  Radioactivity in Visual cortex: 0.89 Uptake Units
  Radioactivity in Plasma: 0.16 Uptake Units
  Radioactivity in Whole blood: 0.16 Uptake Units
50 min
  Radioactivity in Cerebellum: 0.55 Uptake Units
  Radioactivity in Entorhinal cortex: 0.75 Uptake Units
  Radioactivity in Fat: 0.49 Uptake Units
  Radioactivity in Heart (ventricle): 0.50 Uptake Units
  Radioactivity in Hippocampus: 0.73 Uptake Units
  Radioactivity in Hypothalamus: 0.61 Uptake Units
  Radioactivity in Inferior collicull: 0.56 Uptake Units
  Radioactivity in Kidney: 1.68 Uptake Units
  Radioactivity in Large intestine: 0.76 Uptake Units
  Radioactivity in Lge. intestine content: 0.35 Uptake Units
  Radioactivity in Liver: 5.01 Uptake Units
  Radioactivity in Lung: 5.30 Uptake Units
  Radioactivity in Medulla with Pons: 0.70 Uptake Units
  Radioactivity in Olfactory bulbs: 0.58 Uptake Units
  Radioactivity in Olfactory tubercles: 0.65 Uptake Units
  Radioactivity in Prefrontal cortex: 0.80 Uptake Units
  Radioactivity in Skeletal muscle: 0.61 Uptake Units
  Radioactivity in Skin: 0.52 Uptake Units
  Radioactivity in Sm. intestine content: 4.03 Uptake Units
  Radioactivity in Small intestine: 1.19 Uptake Units
  Radioactivity in Somatosensory cortex: 0.71 Uptake Units
  Radioactivity in Spleen: 2.95 Uptake Units
  Radioactivity in Stomach: 0.32 Uptake Units
  Radioactivity in Striata: 0.69 Uptake Units
  Radioactivity in Superior collicull: 0.57 Uptake Units
  Radioactivity in Testis: 0.69 Uptake Units
  Radioactivity in Thalamus: 0.85 Uptake Units
  Radioactivity in Urine: 84.5 Uptake Units
  Radioactivity in Visual cortex: 0.72 Uptake Units
  Radioactivity in Plasma: 0.17 Uptake Units
  Radioactivity in Whole blood: 0.16 Uptake Units
60 min
  Radioactivity in Cerebellum: 0.54* Uptake Units
  Radioactivity in Entorhinal cortex: 0.73* Uptake Units
  Radioactivity in Fat: 0.79* Uptake Units
  Radioactivity in Heart (ventricle): 0.59* Uptake Units
  Radioactivity in Hippocampus: 0.76* Uptake Units
  Radioactivity in Hypothalamus: 0.65* Uptake Units
  Radioactivity in Inferior collicull: 0.54* Uptake Units
  Radioactivity in Kidney: 1.87* Uptake Units
  Radioactivity in Large intestine: 1.03* Uptake Units
  Radioactivity in Lge. intestine content: 0.44* Uptake Units
  Radioactivity in Liver: 5.73* Uptake Units
  Radioactivity in Lung: 4.10* Uptake Units
  Radioactivity in Medulla with Pons: 0.67* Uptake Units
  Radioactivity in Olfactory bulbs: 0.55* Uptake Units
  Radioactivity in Olfactory tubercles: 0.65* Uptake Units
  Radioactivity in Prefrontal cortex: 0.77* Uptake Units
  Radioactivity in Skeletal muscle: 0.49* Uptake Units
  Radioactivity in Skin: 0.46* Uptake Units
  Radioactivity in Sm. intestine content: 6.08* Uptake Units
  Radioactivity in Small intestine: 1.29* Uptake Units
  Radioactivity in Somatosensory cortex: 0.68* Uptake Units
  Radioactivity in Spleen: 2.98* Uptake Units
  Radioactivity in Stomach: 0.66* Uptake Units
  Radioactivity in Striata: 0.67* Uptake Units
  Radioactivity in Superior collicull: 0.54* Uptake Units
  Radioactivity in Testis: 0.89* Uptake Units
  Radioactivity in Thalamus: 0.74* Uptake Units
  Radioactivity in Urine: 24.4* Uptake Units
  Radioactivity in Visual cortex: 0.73* Uptake Units
  Radioactivity in Plasma: 0.18 Uptake Units
  Radioactivity in Whole blood: 0.17 Uptake Units
70 min
  Radioactivity in Cerebellum: 0.38* Uptake Units
  Radioactivity in Entorhinal cortex: 0.41 Uptake Units
  Radioactivity in Fat: 0.55* Uptake Units
  Radioactivity in Heart (ventricle): 0.52* Uptake Units
  Radioactivity in Hippocampus: 0.54* Uptake Units
  Radioactivity in Hypothalamus: 0.33 Uptake Units
  Radioactivity in Inferior collicull: 0.39 Uptake Units
  Radioactivity in Kidney: 1.88* Uptake Units
  Radioactivity in Large intestine: 0.76* Uptake Units
  Radioactivity in Lge. intestine content: 0.57* Uptake Units
  Radioactivity in Liver: 6.02* Uptake Units
  Radioactivity in Lung: 4.62* Uptake Units
  Radioactivity in Medulla with Pons: 0.39 Uptake Units
  Radioactivity in Olfactory bulbs: 0.31 Uptake Units
  Radioactivity in Olfactory tubercles: 0.36 Uptake Units
  Radioactivity in Prefrontal cortex: 0.52* Uptake Units
  Radioactivity in Skeletal muscle: 0.44* Uptake Units
  Radioactivity in Skin: 0.47* Uptake Units
  Radioactivity in Sm. intestine content: 5.41* Uptake Units
  Radioactivity in Small intestine: 1.34* Uptake Units
  Radioactivity in Somatosensory cortex: 0.38 Uptake Units
  Radioactivity in Spleen: 2.97* Uptake Units
  Radioactivity in Stomach: 0.96 Uptake Units
  Radioactivity in Striata: 0.46* Uptake Units
  Radioactivity in Superior collicull: 0.28 Uptake Units
  Radioactivity in Testis: 0.74* Uptake Units
  Radioactivity in Thalamus: 0.40 Uptake Units
  Radioactivity in Urine: 16.9* Uptake Units
  Radioactivity in Visual cortex: 0.38 Uptake Units
  Radioactivity in Plasma: 0.20 Uptake Units
  Radioactivity in Whole blood: 0.18 Uptake Units
90 min
  Radioactivity in Cerebellum: 0.32* Uptake Units
  Radioactivity in Entorhinal cortex: 0.38* Uptake Units
  Radioactivity in Fat: 0.51* Uptake Units
  Radioactivity in Heart (ventricle): 0.40* Uptake Units
  Radioactivity in Hippocampus: 0.46* Uptake Units
  Radioactivity in Hypothalamus: 0.35* Uptake Units
  Radioactivity in Inferior collicull: 0.36 Uptake Units
  Radioactivity in Kidney: 1.50* Uptake Units
  Radioactivity in Large intestine: 0.61* Uptake Units
  Radioactivity in Lge. intestine content: 0.66* Uptake Units
  Radioactivity in Liver: 3.85* Uptake Units
  Radioactivity in Lung: 2.62* Uptake Units
  Radioactivity in Medulla with Pons: 0.39* Uptake Units
  Radioactivity in Olfactory bulbs: 0.28* Uptake Units
  Radioactivity in Olfactory tubercles: 0.36* Uptake Units
  Radioactivity in Prefrontal cortex: 0.45* Uptake Units
  Radioactivity in Skeletal muscle: 0.35* Uptake Units
  Radioactivity in Skin: 0.40* Uptake Units
  Radioactivity in Sm. intestine content: 3.66* Uptake Units
  Radioactivity in Small intestine: 0.93* Uptake Units
  Radioactivity in Somatosensory cortex: 0.43* Uptake Units
  Radioactivity in Spleen: 2.07* Uptake Units
  Radioactivity in Stomach: 0.34* Uptake Units
  Radioactivity in Striata: 0.41* Uptake Units
  Radioactivity in Superior collicull: 0.23 Uptake Units
  Radioactivity in Testis: 0.79* Uptake Units
  Radioactivity in Thalamus: 0.42* Uptake Units
  Radioactivity in Urine: 46.4* Uptake Units
  Radioactivity in Visual cortex: 0.44* Uptake Units
  Radioactivity in Plasma: 0.21 Uptake Units
  Radioactivity in Whole blood: 0.18 Uptake Units
[1]
  radioactivity level in plasma: ~0.2 uptake units
  radioactivity level in whole blood: ~0.2 uptake units

From patent US7432397B2, “Imaging compounds” (Hammersmith Imanet Ltd., priority 2002, dated 2008)
